In US11236083B2, “Compounds and pharmaceutical compositions for modulating SGK activity, and methods thereof” (NEW ERA PHARMA, INC., priority 2016, dated 2022):
Where “and” joins values, the source holds several entries; their conditions need not be identical. Equal values may be shown once. Read-outs that look alike come from different tables or passages of the source.

Assays:
Sgk2 = target: T1, Sgk2 (Homo sapiens, UniProt Q9HBY8); assay: Enzyme based assay for SGK2 (biotinylated Akt Substrates-2 peptide, Eu3+ Cryptate/XL665 detection); assay type: biochemical
T1 sequence (Q9HBY8 1-367): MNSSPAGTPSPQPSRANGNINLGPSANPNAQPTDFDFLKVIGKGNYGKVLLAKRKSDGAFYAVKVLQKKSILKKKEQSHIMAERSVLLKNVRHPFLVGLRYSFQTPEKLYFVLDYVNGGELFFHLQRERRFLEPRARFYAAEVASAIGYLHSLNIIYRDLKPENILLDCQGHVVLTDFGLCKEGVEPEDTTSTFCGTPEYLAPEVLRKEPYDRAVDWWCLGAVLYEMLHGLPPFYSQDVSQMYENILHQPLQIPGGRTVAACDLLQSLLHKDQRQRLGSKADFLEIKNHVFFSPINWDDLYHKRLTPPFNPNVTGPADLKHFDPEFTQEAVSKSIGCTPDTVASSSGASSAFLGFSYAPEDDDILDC
Description: (§1) 1. Enzyme Based Assays for SGK1, SGK2, SGK3, and Akt1
(§2) The kinase enzymatic reaction is carried out with a biotinylated Akt Substrates-2 peptide substrate. The phosphorylated substrate is then detected using a specific anti-phospho peptide antibody which is coupled with Eu^3+ Cryptate and XL665 conjugated with streptavidin.
(§3) Exemplary Assay Conditions
(§4) • Enzyme: ˜0.1 nM • Substrate: 0.2 μM • ATP: 50 μM and 1 mM • Mg^2+: 10 mM • Reaction time: 60 min with 50 μM ATP and 30 min with 1 mM ATP • SA-XL to Biotin: 1:10
(§5) Detailed Steps • 1. prepare the enzyme and substrate solution with the buffer from Cisbio • 2. add the enzyme and substrate solution to the diluted compound plate • 3. transfer 5 μL of compound, enzyme, and substrate mixture to an 384-well assay plate • 4. add 5 μL ATP (with Mg^2+) solution to initiate the reaction • 5. after certain time, add 10 μL of stop solution containing SA-XL and specific antibody • 6. read the plate after 2 h incubation at rt • 7. process the data using prizm software (Exemplary results are shown in FIG. 1.) 2. PK Studies Protocol

Sgk1 = target: T2, Sgk1 (Homo sapiens, UniProt O00141); assay: Enzyme based assay for SGK1 (biotinylated Akt Substrates-2 peptide, Eu3+ Cryptate/XL665 detection); assay type: biochemical
T2 sequence (O00141 1-431): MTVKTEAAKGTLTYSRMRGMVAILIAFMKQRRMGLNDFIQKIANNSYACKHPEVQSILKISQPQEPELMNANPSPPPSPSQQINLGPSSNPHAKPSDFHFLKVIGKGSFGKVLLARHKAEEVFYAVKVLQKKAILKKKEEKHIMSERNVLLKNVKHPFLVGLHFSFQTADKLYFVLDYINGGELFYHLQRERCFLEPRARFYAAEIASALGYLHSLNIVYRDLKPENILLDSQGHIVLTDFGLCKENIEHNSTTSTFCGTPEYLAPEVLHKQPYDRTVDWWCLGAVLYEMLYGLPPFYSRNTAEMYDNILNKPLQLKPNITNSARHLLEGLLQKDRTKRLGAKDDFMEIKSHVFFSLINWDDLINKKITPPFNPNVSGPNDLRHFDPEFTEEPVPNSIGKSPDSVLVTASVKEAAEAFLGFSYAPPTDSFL
Description: as §1, §2, §3, §4, §5

HeLa = HeLa cell testing (Table 2); assay type: cell-based; details: Homo sapiens; HeLa cells
293T = 293T cell testing (Table 2); assay type: cell-based; details: Homo sapiens, HEK-293T; 293T cells
293T_O = 293T_O cell testing (Table 2); assay type: cell-based; details: 293T_O cells
hERG channels = target: T3, hERG channels (Homo sapiens, UniProt Q12809); assay: Qpatch hERG assay (automated patch clamp, whole-cell tail current); assay type: cell-based; details: for IC50: CHO cell line stably expressing hERG channels, highest test concentration 30 μM
T3 construct: expressed in transfected cells
T3 sequence (Q12809 whole entry): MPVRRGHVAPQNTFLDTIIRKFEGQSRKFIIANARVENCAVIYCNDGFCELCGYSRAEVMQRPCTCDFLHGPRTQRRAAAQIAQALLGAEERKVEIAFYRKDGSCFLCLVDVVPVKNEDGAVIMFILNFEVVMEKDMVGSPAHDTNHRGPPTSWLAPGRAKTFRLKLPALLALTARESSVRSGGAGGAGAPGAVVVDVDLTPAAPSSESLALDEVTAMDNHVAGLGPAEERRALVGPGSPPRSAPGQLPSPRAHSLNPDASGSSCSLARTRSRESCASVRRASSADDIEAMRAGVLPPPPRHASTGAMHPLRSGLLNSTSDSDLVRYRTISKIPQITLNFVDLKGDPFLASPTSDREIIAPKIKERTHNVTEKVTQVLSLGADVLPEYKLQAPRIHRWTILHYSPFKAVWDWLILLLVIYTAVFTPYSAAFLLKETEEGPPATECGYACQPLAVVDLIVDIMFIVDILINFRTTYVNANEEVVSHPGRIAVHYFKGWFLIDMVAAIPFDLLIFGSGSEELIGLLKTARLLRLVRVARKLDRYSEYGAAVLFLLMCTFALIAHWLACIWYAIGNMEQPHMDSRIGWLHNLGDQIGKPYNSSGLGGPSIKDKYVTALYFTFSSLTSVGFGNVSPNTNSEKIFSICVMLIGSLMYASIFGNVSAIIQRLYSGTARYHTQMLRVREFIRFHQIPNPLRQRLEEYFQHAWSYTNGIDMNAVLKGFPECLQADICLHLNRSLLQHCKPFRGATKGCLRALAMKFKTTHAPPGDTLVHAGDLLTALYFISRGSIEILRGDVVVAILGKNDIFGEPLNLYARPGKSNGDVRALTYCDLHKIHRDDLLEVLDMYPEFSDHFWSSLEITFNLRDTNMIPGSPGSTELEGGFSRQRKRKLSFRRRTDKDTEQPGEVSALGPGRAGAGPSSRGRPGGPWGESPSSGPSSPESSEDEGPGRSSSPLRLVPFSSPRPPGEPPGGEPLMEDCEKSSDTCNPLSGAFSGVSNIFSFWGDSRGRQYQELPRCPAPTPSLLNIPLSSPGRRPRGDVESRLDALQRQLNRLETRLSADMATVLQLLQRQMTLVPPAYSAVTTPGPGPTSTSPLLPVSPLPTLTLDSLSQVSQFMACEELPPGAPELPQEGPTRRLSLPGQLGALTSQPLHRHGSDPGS
Description: • Assay platform & method: Automated patch clamp (Qpatch-48) • Cell source: CHO cell line stably expressing hERG channels • Measured parameter: Whole-cell tail current of hERG channels • Test concentration: 6 concentrations (30, 10, 3, 1, 0.3, 0.1 μM)
Example: Qpatch hERG Assay

[1] = 50 μM ATP, read-out: Sgk2 (50 μM ATP)
[2] = 1 mM ATP, read-out: Sgk2 (1 mM ATP)
[3] = 50 μM ATP, read-out: Sgk1 (50 μM ATP)
[4] = 1 mM ATP, read-out: Sgk1 (1 mM ATP)

Row | IC50 (Sgk2; [1]) | IC50 (Sgk2; [2]) [nM] | IC50 (Sgk1; [3]) [nM] | IC50 (Sgk1; [4]) [nM] | IC50 (HeLa) [nM] | Structure (SMILES) | IC50 (293T) [nM] | IC50 (293T_O) [nM] | IC50 (hERG channels) [nM] | Fitting curve Hillslope (hERG channels; Qpatch hERG concentration-response fit)
1 | 6.7 nM | 68 | 3.2 | 113 | 6600 | Nc1n[nH]c2cc(-c3ccc(NS(=O)(=O)c4cc(Cl)ccc4F)cc3)ccc12 | 27600 | 66800 | – | –
2 | 6.1 nM | 16 | 10.9 | 35.8 | 13700 | COc1ccc(F)c(S(=O)(=O)Nc2ccc(-c3ccc4c(N)n[nH]c4c3)cc2)c1 | 56100 | 47100 | – | –
3 | 8.6 nM and 3.4 nM | > 200 | – | > 200 | 13800 | COc1ccc(F)c(S(=O)(=O)Nc2ccc(-c3cnc4cn[nH]c4c3)cc2)c1 | 66500 | > 100000 | – | –
4 | 5.5 nM | 54.1 | – | > 200 | 68400 | COc1ccc(F)c(S(=O)(=O)Nc2ccc(-c3cc4[nH]nc(N)c4cn3)cc2)c1 | 94400 | > 100000 | – | –
5 | 0.8 nM | 5.6 | 3.1 | 9.7 | 35800 | COc1ccc(F)c(S(=O)(=O)Nc2ccc(-c3cc4[nH]ncc4c(OCC4CNCCO4)n3)cc2)c1 (centres unmarked) [drawing 99] | 47900 | 61200 | – | –

Further lines, the compound ahead of its results:

Row | Structure (SMILES) | IC50 (Sgk2; [1]) | IC50 (Sgk2; [2]) [nM] | IC50 (Sgk1; [3]) [nM] | IC50 (Sgk1; [4]) [nM] | IC50 (HeLa) [nM] | IC50 (293T) [nM] | IC50 (293T_O) [nM] | IC50 (hERG channels) [nM] | Fitting curve Hillslope (hERG channels; Qpatch hERG concentration-response fit)
6 | COc1ccc(Cl)c(S(=O)(=O)Nc2ccc(-c3cc4[nH]ncc4c(OCC4CNCCO4)n3)cc2)c1 (centres unmarked) | 2 nM | 15.8 | 2.5 | 6.9 | 11700 | 20400 | 35100 | – | –
7 | COc1ccc(F)c(S(=O)(=O)Nc2ccc(-c3cc4[nH]ncc4c(SCC4CNCCO4)n3)cc2)c1 (centres unmarked) | 3.4 nM | 4.1 | 2.3 | 6.6 | 15600 | 17900 | 24500 | – | –
8 | COc1ccc(Cl)c(S(=O)(=O)Nc2ccc(-c3ccc4c(N)n[nH]c4n3)cc2)c1 | 2.1 nM | 65.1 | 12.6 | 67.7 | 21900 | 60700 | 45500 | – | –
9 | COc1ccc(F)c(S(=O)(=O)Nc2ccc(-c3cc(OC)c4c(N)n[nH]c4c3)cc2)c1 [C, N-(4-(3-amino-4-methoxy-1H-indazol-6-yl)-phenyl)-2-fluoro-5-methoxybenzenesulfonamide] | – | – | – | – | – | – | – | > 30000 | –
10 | COc1ccc(F)c(S(=O)(=O)Nc2ccc(-c3cc4[nH]nc(N)c4c(C)n3)cc2)c1 [D, N-(4-(3-amino-4-methyl-1H-pyrazolo[4,3-c]pyr-idin-6-yl)phenyl)-2-fluoro-5-methoxybenzenesulfonamide] | – | – | – | – | – | – | – | 12200 | Fitting curve Hillslope = 0.88
11 | COc1ccc(F)c(S(=O)(=O)Nc2ccc(-c3cc(C)c4c(N)n[nH]c4n3)cc2)c1 [E, N-(4-(3-amino-4-methyl-1H-pyrazolo[3,4-b]-pyridin-6-yl)phenyl)-2-fluoro-5-methoxybenzenesulfonamide] | – | – | – | – | – | – | – | > 30000 | –
12 | COc1ccc(F)c(S(=O)(=O)Nc2ccc(-c3ccc4c(N)n[nH]c4n3)cc2)c1 [J, N-(4-(3-amino-1H-pyrazolo[3,4-b]pyridin-6-yl)-phenyl)-2-fluoro-5-methoxybenzenesulfonamide] | – | – | – | – | – | – | – | > 30000 | –
